Experimental data as given in patent US20060167094A1, “Satiety agent” (priority 2005, published 2006).

Columns and labels:
[1] = Appetite perceptions (VAS scores) during and after 90 min intraduodenal infusion; format: in vivo, human
Method: (§1) Each subject was studied on three occasions, separated by 3-10 days, to evaluate, in a double-blind, randomized fashion, the effects of intraduodenal infusions of 1) C12, 2) C10, or 3) control solution for 90 min on appetite perceptions, energy intake, APD pressures, and plasma CCK and GLP-1 concentrations.
(§2) Once the catheter was positioned correctly, fasting motility was monitored until the occurrence of phase III of the interdigestive migrating motor complex (MMC). Immediately after the cessation of phase III activity [at time t=−15 min], a baseline venous blood sample was taken, and a visual analog scale questionnaire (VAS) (see Measurements), assessing appetite-related sensations, was administered. At t=0 min (i.e., during phase I of the MMC), the duodenal infusion of 1) C12, 2) C10, or 3) control solution was commenced and continued for 90 min. APD pressures were monitored throughout the infusion period; blood samples were taken, and the VAS administered every 15 min from t=0 min until t=90 min. At t=90 min, the infusion was terminated, and the subject was immediately extubated and offered a cold buffet-style meal, the composition of which is provided in Table 1. The amount of food offered was in excess of what the subject was expected to consume. The subject was given 30 min (i.e., t=90 min to t=120 min) to consume the meal and instructed to eat until comfortably full. After ingestion of the meal, the subject was monitored for a further 30 min, a further VAS was completed, and blood samples were taken at t=120 and 150 min. The intravenous cannula was then removed, and the subject was allowed to leave the laboratory.
Appetite sensations and energy intake. Subjective sensations of appetite, including hunger, fullness, desire to eat, prospective consumption (“how much food do you think you could eat if you were given a meal now?”), were assessed using validated VASs (Sensations of nausea and bloating were also assessed. Each VAS evaluated a sensation on a 100-mm horizontal line, where 0 represented “sensation is not felt at all” and 100 represented “sensation is felt the greatest.” Subjects were asked to place a vertical stroke on the 100-mm line in relation to what they were feeling at that particular point in time.
Baseline (“0”) values were calculated as the mean of values obtained at t=−15 and 0 min for VAS scores and plasma hormone concentrations and between t=−15 to 0 min for basal pyloric pressures, number, and amplitude of IPPWs, antral and duodenal PWs, and total number of duodenal PWSs. Basal pyloric pressures and the number and amplitude of IPPWs were expressed as means over 15-min segments during the 90-min infusion period. Numbers and amplitudes of antral and duodenal PWs were expressed as total number and mean values, respectively, for the 90-min infusion period. Duodenal PWSs were expressed as the total number of waves travelling over two, three, four, five, six, and seven channels during the 90-min infusion period. All data, except for plasma CCK and GLP-1 concentrations, were expressed as changes from baseline.
VAS scores, basal pyloric pressures, number and amplitude of IPPWs, and plasma hormone concentrations were analyzed by repeated-measures mixed model analysis of covariance (ANCOVA), with baseline as the covariate and time (0-90 min, at 15-min intervals) and treatment as within-subject factors. One-way ANOVA was used to assess the effect of treatment on energy intake, time taken to complete eating, total numbers and mean amplitudes of antral and duodenal PWs, and total number of duodenal PWSs. A logarithmic transformation was applied to nausea scores, antral amplitudes, and duodenal PWSs travelling 7.5 and 9 cm to better address the underlying assumptions of the models used (as these variables lacked normal distribution). If significance or near significance ([…]) was found, post hoc comparisons of least-squares means using Student's t-tests were performed. […]

[2] = system: pancreatic bicarbonate secretion; settings: luminal fatty acid; cited from earlier work
[3] = cited from earlier work
[4] = at similar concentrations; cited from earlier work
[5] = Energy intake from the buffet meal after intraduodenal infusion; format: in vivo, human
Method: as §1, §2
Energy intake from the buffet meal [energy consumption (in kJ) and macronutrient distribution (in % and g energy)] was analyzed using commercially available software (Food works 3.0, Xyris Software; Highgate Hill, Queensland, Australia). The time taken to finish the meal (in min) was also evaluated.

CCK secretion = settings: gastric infusion, humans; cited from earlier work
plasma GLP-1 = experiment: Plasma GLP-1 concentrations by radioimmunoassay; format: in vivo, human
Method: as §2
Venous blood samples (10 ml) were collected in ice-chilled EDTA-treated tubes containing 400 kIU aprotinin (Trasylol, Bayer Australia) per millilitre of blood. Plasma was separated by centrifugation (3,200 rpm, 15 min, 4° C.) within 30 min of collection and stored at −70° C. until assayed.
Plasma GLP-1 concentrations (in pmol/l) were measured by radioimmunoassay using an adaptation of a previously published method (4) Antibody, supplied by Prof. […] It is likely that this antibody also reacts with the degraded form of GLP-1(9-36) amide. Intra-assay CV was 17% and interassay CV was 18%, with a sensitivity of 1.5 pmol/l.

[6] = during 90 min intraduodenal infusion, 0.375 kcal/min, compared with control
[7] = buffet meal, compared with control

Q: Which “fullness (VAS) after meal ingestion” value ([1]; at 120 and 150 min, after the buffet meal) does the source give for `CCCCCCCCCCCC(=O)O` [C12, lauric acid] here?
A: less after C12 than C10

Q: And the “mean score for nausea after termination of infusion” value ([1]; by 120 min (infusion terminated at 90 min))?
A: close to baseline

Q: What about the “scores for bloating (VAS)” value ([1]; during 90 min intraduodenal infusion, 0.375 kcal/min) of the same molecule?
A: increased the scores for bloating

Q: What about the “nausea scores (VAS)” value [1, 6] of the same molecule?
A: increased nausea scores compared with control

Q: And the “scores for hunger (VAS)” value [1, 6]?
A: lower compared with control

Q: What about the “scores for prospective consumption (VAS)” value [1, 6] of the same molecule?
A: lower compared with control

Q: What about the “scores for desire to eat (VAS)” value ([1]; during 90 min intraduodenal infusion, 0.375 kcal/min, healthy males, compared with control) of the same molecule?
A: lower compared with control

Q: What about the subjects reporting nausea ([1]; during C12 infusion 0.375 kcal/min, randomized study of 8 subjects) of the same molecule?
A: Five of the eight

Q: What about the “secretion of pancreatic bicarbonate relative to C10, C16, C18:0, C18:1 and C18:2” value [2] of the same molecule?
A: more than twice as much

Q: And the “adverse effects of perfusion into human duodenum” value ([3]; 0.36 kcal/min)?
A: without adverse effects

Q: And the “rate of emptying from the human stomach” value ([3]; in vivo)?
A: 0.375 kcal/min

Q: What about the “cytotoxicity relative to C18:1” value [4] of the same molecule?
A: half as cytotoxic as C18:1

Q: What about the “energy intake at buffet meal” value ([5]; after 90 min intraduodenal infusion 0.375 kcal/min, compared with control) of the same molecule?
A: dramatically decreased energy intake compared with control

Q: And the “reduction of energy intake compared with the control infusion” value ([5]; all subjects, C12 total energy delivered 141 kJ)?
A: ~2,857 kJ

Q: And the “amount of energy (in g) ingested from carbohydrate” value [5, 7]?
A: reduced

Q: And the “amount of energy (in g) ingested from fat” value [5, 7]?
A: reduced

Q: And the “amount of energy (in g) ingested from protein” value [5, 7]?
A: reduced

Q: And the “potency as suppressant of energy intake relative to C18:1” value ([5]; isoenergetic amounts, intraduodenal, humans)?
A: more potent suppressant of energy intake

Q: What about the “time at which eating from the buffet meal was completed” value ([5]; mean±SE, not statistically significant) of the same molecule?
A: 13 ± 3.5 min

Q: What about the “energy intake in the absence of nausea” value ([5]; non-nauseated subjects) of the same molecule?
A: inhibited energy intake in the absence of nausea

Q: And the “magnitude of the reduction in energy intake” value ([5]; subjects that did not experience nausea)?
A: ~1,801 kJ

Q: And the “magnitude of the reduction in energy intake” value ([5]; subjects who reported nausea)?
A: ~3,840 kJ

Q: What about the “stimulation of CCK secretion” value (CCK secretion) of the same molecule?
A: reported to stimulate CCK secretion

Q: What about the “delay until plasma GLP-1 concentrations rose” value (plasma GLP-1; after the start of infusion) of the same molecule?
A: 30 min

Q: And the “plasma GLP-1 concentrations compared with control” value (plasma GLP-1; during infusion, C12 effect from 30 to 90 min)?
A: increased plasma GLP-1

Q: What about the “plasma GLP-1 concentrations compared with C10” value (plasma GLP-1; from 45 to 90 min) of the same molecule?
A: increased plasma GLP-1

Q: And the “plasma GLP-1 concentrations after meal ingestion” value (plasma GLP-1; t=120 and 150 min, compared with control)?
A: higher after the C12 infusion compared with both control

Q: And the “GLP-1 level higher than after ingestion of the buffet meal after the control infusion” value (plasma GLP-1; versus level after ingestion of ~4,528 kJ)?
A: 40%
